The values that follow come from US5726156A, “Cytokine regulatory agents and methods of use in pathologies and conditions associated with altered cytokine levels” (Trega Biosciences, Inc., priority 1995, dated 1998).

Assay [1] concerns Carageenan-induced paw swelling. Put plainly: Carageenan-induced paw swelling. The assay is classed as in vivo, mice. The note with it: 1 μg/mouse; 2 hr time point. As to the method:
Carageenan-induced paw swelling was induced using a modification of the methods of Hiltz and Lipton, Peptides 11:979-982 (1990); Vinegar et al., Fed. Proc. 46:118-126 (1987); and Vinegar et al., J. Pharmacol. Expt. Therap. 166:96-103 (1969), each of which is incorporated herein by reference. Briefly, adult female Balb/c mice were anesthetized by IP injection of 7 mg/kg ketoamine and 0.6 mg/kg rompun. Foot pad thickness was measured using a spring loaded micrometer (Swiss Precision Instruments). Foot pad thickness was expressed in units of 1/100 inch. After baseline measurements were obtained, mice were injected into a hind foot pad with either 0.2 ml physiologic saline (control) or varying doses of EX-2 or EX-3 in 0.2 ml saline (treated). The first injection was followed immediately by injection of 0.02 ml of 0.15% K-carageenan (Sigma Chemical Co.; St. Louis, Mo.).
Hind foot pad thickness was measured hourly for six hr, the change in thickness was determined and the percent reduction in swelling due to treatment with EX-2 was calculated.

For assay [2], the system named is kidney (cyclosporine-induced nephrotoxicity). Description: Cyclosporine-induced nephrotoxicity. The assay is classed as in vivo, rats. On the procedure: In the first study, male Sprague-Dawley rats (n=43) with a weight range of 240-290 g at the initiation of the cyclosporine A (CsA) treatment were divided into 4 weight matched groups. The groups were as follows: (1) Control: no CsA, no EX-2, treatment only with CsA vehicle (PBS) PO and EX-2 vehicle (also PBS) IP; (2) CsA: treatment with CsA (50 mg/kg in PBS administered PO daily at 0830 hr for 9 days) and IP injections of PBS (Ex-2 vehicle); (3) CsA and 50 μg: CsA treatment identical to group 2 with the addition of EX-2 (50 μg/kg IP administered daily at 0800 and 1700 hr in EX-2 vehicle); and (4) CsA and 500 μg: CsA treatment identical to groups 2 and 3, and EX-2 treatment protocol similar to group 3 except that the dose of EX-2 was 500 μg/kg BW. […] Renal blood flow was determined by the inulin extraction technique. […]
In the second study, male Sprague-Dawley rats (n=3l) with a weight range of 240-290 g at the time of initiation of the cyclosporine treatment were divided into 4 weight-matched groups. […] Renal hemodynamics were determined and extracellular fluid volumes were also assessed.
In the second study, where extracellular fluid volumes (ECF) were measured, there were no differences in ECF among control and treatment groups (27.6±1.9 in control, 27.5±1.7 in CsA and vehicle, 26.2±0.9 in CsA +200 μg/kg EX-2, and 25.7±1.4% in CsA +500 μg/kg EX-2). […]

With “Ac-Nle-Gln-His-(D)Phe-Arg-(D)Trp-Gly-NH2 [EX-2]”, in assay [1], the “Reduction in Carageenan-induced Paw Swelling” value is listed as 45%. Moreover, the renal blood flow result in assay [2] (CsA-treated rats, EX-2 IP twice daily) is “improved blood flow to values not different from control”. In assay [2] (compared to CsA and vehicle controls, in both studies), the GFR result was “significantly increased GFR”.
